Test results taken from paper PMC4627800, “Allelic Variation of Cytochrome P450s Drives Resistance to Bednet Insecticides in a Major Malaria Vector” (PLoS Genetics, 2015).
Read-outs that look alike come from different tables or passages of the source. Marks after values point to notes of the source that are not given here.

Experiments:
CYP6M2 = tested on: CYP6M2; design: method as in ref [5] (S1 Text); conditions: cited from earlier work
Pro^401Ala_CYP6P9b = Pro^401Ala_CYP6P9b (Anopheles funestus, UniProt B5AII7, P401A); assay: Kinetics of permethrin metabolism by CYP6P9b mutants; format: biochemical
Description: (§1) Reactions were performed in triplicates both for +NADPH (experimental tubes) and–NADPH (negative control). K m and V max were established from the plot of substrate concentrations against the initial velocities and fitting of the data to the Michaelis-Menten module using the least squares non-linear regression, as described in the GraphPad Prism 6.03 Software (GraphPad Inc., La Jolla, CA, USA).
(§2) In addition, fluorescent probes were also screened to establish differences in the O-dealkylation activity of the mutants compared with the wild type enzyme. All in vitro and kinetic analyses were conducted as described above. However, as different mutants expressed with varying concentrations all assays were conducted within linear range, with the amount of enzyme and time which produced highest activities.

Asn^384Ser_CYP6P9b = Asn^384Ser_CYP6P9b (Anopheles funestus, UniProt B5AII7, N384S); assay: as above; format: biochemical
Description: as §1, §2

Val^109Ile_CYP6P9b = Val^109Ile_CYP6P9b (Anopheles funestus, UniProt B5AII7, V109I); assay: as above; format: biochemical
Description: as §1, §2

Asp^335Glu_CYP6P9b = Asp^335Glu_CYP6P9b (Anopheles funestus, UniProt B5AII7, D335E); assay: as above; format: biochemical
Description: as §1, §2

UGANCYP6P9b = UGANCYP6P9b (Anopheles funestus, UniProt A0A0S1S7Y0); assay: Pyrethroid depletion (metabolism) assay with recombinant enzyme; format: biochemical; conditions: 20μM insecticide, 1 hour, vs -NADPH
MALCYP6P9b = MALCYP6P9b (Anopheles funestus, UniProt B5AII7); assay: Steady-state kinetics of pyrethroid metabolism; format: biochemical
Description: as §1

[1] = molecular target: wild type recombinant MALCYP6P9b (wrMALCYP6P9b) (Anopheles funestus, UniProt B5AII7)
Description: as §1, §2

UGANCYP6P9a = UGANCYP6P9a (Anopheles funestus, UniProt B5AII6); assay: Pyrethroid depletion (metabolism) assay with recombinant enzyme; format: biochemical; conditions: 20μM insecticide, 1 hour, vs -NADPH
Description: (§7) Membrane expressing recombinant CYP6P9a/-b and AgCPR, and reconstituted cytochrome b5 were added to the side of the tube and pre-incubated for 5 minutes at 30°C, with shaking at 1,200 rpm to activate the membrane. 20μM of test insecticide was then added into the final volume of 0.2ml (~2.5% v/v methanol), and reaction started by vortexing at 1,200 rpm and 30°C for 1 hour. Reactions were quenched with 0.1ml ice-cold methanol and incubated for 5 more minutes. Tubes were then centrifuged at 16,000 rpm and 4°C for 15 minutes, and 150μl of supernatant transferred into HPLC vials for analysis. Reactions were carried out in triplicates with experimental samples (+NADPH) and negative controls (-NADPH). 100μl of sample was loaded onto an isocratic mobile phase (90:10 v/v methanol to water) with a flow rate of 1ml/min, monitoring wavelength of 226nm and peaks separated with a 250mm C18 column (Acclaim 120, Dionex) on Agilent 1260 Infinity at 23°C. Enzyme activity was calculated as percentage depletion (the difference in the amount of insecticide(s) remaining in the +NADPH tubes compared with the–NADPH) and a t-test used for statistical analysis.

FANGCYP6P9b = FANGCYP6P9b (Anopheles funestus, UniProt A0A0S1RZ61); assay: as above; format: biochemical; conditions: 20μM insecticide, 1 hour, vs -NADPH
Description: (§8) To establish whether allelic variation in CYP6P9a and CYP6P9b impact their metabolic activities toward insecticides, pyrethroids were screened with the recombinant enzymes from these genes. […] Membrane expressing recombinant CYP6P9a/-b and AgCPR, and reconstituted cytochrome b5 were added to the side of the tube and pre-incubated for 5 minutes at 30°C, with shaking at 1,200 rpm to activate the membrane. 20μM of test insecticide was then added into the final volume of 0.2ml (~2.5% v/v methanol), and reaction started by vortexing at 1,200 rpm and 30°C for 1 hour. Reactions were quenched with 0.1ml ice-cold methanol and incubated for 5 more minutes. Tubes were then centrifuged at 16,000 rpm and 4°C for 15 minutes, and 150μl of supernatant transferred into HPLC vials for analysis. Reactions were carried out in triplicates with experimental samples (+NADPH) and negative controls (-NADPH). 100μl of sample was loaded onto an isocratic mobile phase (90:10 v/v methanol to water) with a flow rate of 1ml/min, monitoring wavelength of 226nm and peaks separated with a 250mm C18 column (Acclaim 120, Dionex) on Agilent 1260 Infinity at 23°C. Enzyme activity was calculated as percentage depletion (the difference in the amount of insecticide(s) remaining in the +NADPH tubes compared with the–NADPH) and a t-test used for statistical analysis.

[2] = tested on: transgenic flies over-expressing MALCYP6P9b; conditions: 2% permethrin paper
Description: (§3) Primers used for this PCR are given in S8 Table. PCR conditions, cloning techniques, construction of transgenic flies and expression of candidate genes was conducted as described in previous studies, with more details provided in S1 Text. For control group, flies with the same background as the UAS transgenic lines but devoid of the UAS construct with the candidate gene were crossed with the driver Actin5C-GAL4 line to generate Actin5C-GAL4-null flies.
(§4) These papers were then rolled and introduced into 45 cc plastic vials. The vials were then plugged with cotton wool soaked in 5% sucrose. 20–25 (2–4 days old, post-eclosion F1 females) were selected for the bioassays and introduced into the vials. Mortality plus knockdown was scored after 1 hr, 2 hrs, 3 hrs, 6 hrs, 12 hrs and 24 hrs post-exposure to the discriminating dose of the insecticides.

[3] = tested on: transgenic flies over-expressing MALCYP6P9a; conditions: 2% permethrin paper
Description: as §3, §4

[4] = tested on: transgenic flies over-expressing FANGCYP6P9a; conditions: 2% permethrin paper
Description: as §3, §4

[5] = tested on: transgenic flies over-expressing FANGCYP6P9b; conditions: 2% permethrin paper
Description: as §3, §4

BENCYP6P9b = BENCYP6P9b (Anopheles funestus, UniProt A0A0S1S7Y0); assay: Pyrethroid depletion (metabolism) assay with recombinant enzyme; format: biochemical; conditions: 20μM insecticide, 1 hour, vs -NADPH
Description: as §8

MALCYP6P9a = MALCYP6P9a (Anopheles funestus, UniProt B5AII6); assay: as above; format: biochemical; conditions: 20μM insecticide, 1 hour, vs -NADPH
Description: as §7

BENCYP6P9a = BENCYP6P9a (Anopheles funestus, UniProt A0A0S1RZ75); assay: as above; format: biochemical; conditions: 20μM insecticide, 1 hour, vs -NADPH
Description: as §7

[6] = tested on: Asp^335Glu mutant of MALCYP6P9b; conditions: 20μM insecticide
Description: (§5) To establish whether allelic variation in CYP6P9a and CYP6P9b impact their metabolic activities toward insecticides, pyrethroids were screened with the recombinant enzymes from these genes. […] Membrane expressing recombinant CYP6P9a/-b and AgCPR, and reconstituted cytochrome b5 were added to the side of the tube and pre-incubated for 5 minutes at 30°C, with shaking at 1,200 rpm to activate the membrane. 20μM of test insecticide was then added into the final volume of 0.2ml (~2.5% v/v methanol), and reaction started by vortexing at 1,200 rpm and 30°C for 1 hour. Reactions were quenched with 0.1ml ice-cold methanol and incubated for 5 more minutes. Tubes were then centrifuged at 16,000 rpm and 4°C for 15 minutes, and 150μl of supernatant transferred into HPLC vials for analysis. Reactions were carried out in triplicates with experimental samples (+NADPH) and negative controls (-NADPH). 100μl of sample was loaded onto an isocratic mobile phase (90:10 v/v methanol to water) with a flow rate of 1ml/min, monitoring wavelength of 226nm and peaks separated with a 250mm C18 column (Acclaim 120, Dionex) on Agilent 1260 Infinity at 23°C.
(§6) In addition, fluorescent probes were also screened to establish differences in the O-dealkylation activity of the mutants compared with the wild type enzyme. All in vitro and kinetic analyses were conducted as described above. […]

[7] = tested on: Val^109Ile mutant of MALCYP6P9b; conditions: 20μM insecticide
Description: as §5, §6

FANGCYP6P9a = FANGCYP6P9a (Anopheles funestus, UniProt K7Z0P3); assay: Pyrethroid depletion (metabolism) assay with recombinant enzyme; format: biochemical; conditions: 20μM insecticide, 1 hour, vs -NADPH
Description: as §7

In the case of `CC1(C)C(C=C(Cl)Cl)C1C(=O)OCc1cccc(Oc2ccccc2)c1` (stereo not shown) [permethrin], the Km (CYP6M2; An. gambiae CYP6M2 ref [5] (S1 Text)) is given as 12 µM, the catalytic efficiency (CYP6M2; Anopheles gambiae CYP6M2 ref [5] (S1 Text)) is given as ~ 0.5 min^-1µM^-1 and the Km (Pro^401Ala_CYP6P9b) is given as 15.4 ± 6.5 µM. For the same compound, the Kcat (Pro^401Ala_CYP6P9b; Pro^401Ala_CYP6P9b, mean ± S.E.M.) was 4.21±0.96* min^-1, the “catalytic efficiency of wrMALCYP6P9b, fold of mutant” value (Pro^401Ala_CYP6P9b; wrMALCYP6P9b vs Pro^401Ala) was 3 fold and the Km (Asn^384Ser_CYP6P9b) was 17.9 ± 0.87 µM. For the same compound, the “Km of mutant, fold of Asp^335Glu mutant” value (Asn^384Ser_CYP6P9b) was 4 fold, the “Km of mutant, fold of wrMALCYP6P9b” value (Asn^384Ser_CYP6P9b) was 2 fold and the Kcat (Asn^384Ser_CYP6P9b; Asn^384Ser_CYP6P9b, mean ± S.E.M.) was 0.87±0.08*** min^-1. For the same compound, the “Kcat of wrMALCYP6P9b, fold of mutant” value (Asn^384Ser_CYP6P9b; wrMALCYP6P9b vs Asn^384Ser) was 9 fold, the “catalytic efficiency of wrMALCYP6P9b, fold of mutant” value (Asn^384Ser_CYP6P9b; wrMALCYP6P9b vs Asn^384Ser) was 20 fold and the Km (Val^109Ile_CYP6P9b) was 20.5 ± 1.35 µM. For the same compound, the “Km of mutant, fold of Asp^335Glu mutant” value (Val^109Ile_CYP6P9b) was 4 fold, the “Km of mutant, fold of wrMALCYP6P9b” value (Val^109Ile_CYP6P9b) was 2 fold and the Kcat (Val^109Ile_CYP6P9b; Val^109Ile_CYP6P9b, mean ± S.E.M.) was 1.35±0.57** min^-1. For the same compound, the “Kcat of wrMALCYP6P9b, fold of mutant” value (Val^109Ile_CYP6P9b; wrMALCYP6P9b vs Val^109Ile) was 6 fold, the “catalytic efficiency of wrMALCYP6P9b, fold of mutant” value (Val^109Ile_CYP6P9b; wrMALCYP6P9b vs Val^109Ile) was 13 fold and the Km (Asp^335Glu_CYP6P9b) was 5.19 ± 1.89 µM. For the same compound, the Kcat (Asp^335Glu_CYP6P9b; Asp^335Glu_CYP6P9b, mean ± S.E.M.) was 0.98±0.12*** min^-1, the “Kcat of wrMALCYP6P9b, fold of mutant” value (Asp^335Glu_CYP6P9b; wrMALCYP6P9b vs Asp^335Glu) was 8 fold and the “catalytic efficiency of wrMALCYP6P9b, fold of mutant” value (Asp^335Glu_CYP6P9b; wrMALCYP6P9b vs Asp^335Glu) was 4 fold. For the same compound, the Percentage depletion (UGANCYP6P9b) was 88.58±3.48 %, the Kcat (MALCYP6P9b) was 12.38±4.5^b min^-1 and the Km (MALCYP6P9b) was 12.7 ± 2.68 µM. For the same compound, the “Kcat, fold higher than FANGCYP6P9b” value (MALCYP6P9b; MALCYP6P9b vs FANGCYP6P9b) was 3 fold, the “catalytic efficiency, fold more efficient than FANGCYP6P9b” value (MALCYP6P9b; MALCYP6P9b vs FANGCYP6P9b) was 5 fold and the Kcat [1] was 0.1317 ± 0.0138 s⁻¹. For the same compound, the Km [1] was 10.3 ± 2.38 µM, the Percentage depletion (UGANCYP6P9a) was 60.71±0.92 % and the Percentage depletion (FANGCYP6P9b) was 13.7±4.23%. For the same compound, the mortality ([2]; 12 hrs) was < 30%, the mortality ([2]; 24 hrs) was ~ 30% and the mortality ([3]; 2 hrs) was “less than 10%”. The mortality ([3]; 3 hrs) was < 30%, the mortality ([3]; 6 hrs) was < 45% and the mortality ([4]; 2 hrs) was 30%. The mortality ([4]; 3 hrs) was ~ 60%, the mortality ([4]; 6 hrs) was ~ 70% and the mortality ([5]; 12 hrs) was 55%. For the same compound, the mortality ([5]; 24 hrs) was ~ 60%, the Percentage depletion (BENCYP6P9b) was 89.63±0.63 % and the Percentage depletion (MALCYP6P9a) was 65.38±1.5 %. The Percentage depletion (BENCYP6P9a) was 66.42±2.23 %, the “fold less depletion than wrMALCYP6P9b” value [6] was 2.15 fold and the “fold less depletion than wrMALCYP6P9b” value [7] was 2 fold. It also gave a Percentage depletion (FANGCYP6P9a) of 29.0±1.42%.
